Target: human TYK2 (JH2domain-pseudokinase) (Homo sapiens (Human), UniProt P29597)
Test: TYK2 JH2 Domain Binding Assay (KINOMEscan, DiscoveRx)
Conditions: 11-point dilution, duplicate
Summary of the method: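 TYK2 JH2 (G556–D888)–NFkB DBD fusion, DNA-tagged, from HEK293 extracts (<0.1 nM) competed against immobilised biotinylated ligand for 1 h at room temperature, 0.9% DMSO. Bead-retained kinase quantified by qPCR; Kd from 11-point 3-fold series (top 30,000 nM, duplicate), Hill fit with slope −1.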

Sequence of human TYK2 (JH2domain-pseudokinase) (P29597 556-888): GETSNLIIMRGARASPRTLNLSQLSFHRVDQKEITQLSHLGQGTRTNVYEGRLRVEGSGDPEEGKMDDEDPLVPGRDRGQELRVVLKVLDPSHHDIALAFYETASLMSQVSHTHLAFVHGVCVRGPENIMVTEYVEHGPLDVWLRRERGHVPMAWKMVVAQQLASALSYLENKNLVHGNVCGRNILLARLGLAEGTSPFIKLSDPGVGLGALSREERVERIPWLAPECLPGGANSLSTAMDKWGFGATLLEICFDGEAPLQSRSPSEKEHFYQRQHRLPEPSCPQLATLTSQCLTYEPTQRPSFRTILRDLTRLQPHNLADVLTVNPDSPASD

| SMILES | Kd [nM] |
| --- | --- |
| Cc1ccc(Nc2cc(NC(=O)C3CC3)nc3[nH]c(C)nc23)c(N(C)S(C)(=O)=O)c1 [I-131, N-(2-methyl-7-((4-methyl-2-(N-methylmethylsulfonamido)phenyl)amino)-3H-imidazo[4,5-b]pyridin-5-yl)cyclopropanecarboxamide] | 0.5 to 1 |
| Cc1ccc(Nc2cc(Nc3cnc(C)c(C)n3)nc3[nH]c(C)nc23)c(N(C)S(C)(=O)=O)c1 [I-132, N-(2-((5-((5,6-dimethylpyrazin-2-yl)amino)-2-methyl-3H-imidazo[4,5-b]pyridin-7-yl)amino)-5-methylphenyl)-N-methylmethanesulfonamide] | 0.1 to 0.5 |
| COc1c(Nc2cc(NC(=O)C3CC3)nc3[nH]c(C)nc23)cccc1-c1nn(C)nc1C [I-133, N-(7-((3-(2,5-dimethyl-2H-1,2,3-triazol-4-yl)-2-methoxyphenyl)amino)-2-methyl-3H-imidazo[4,5-b]pyridin-5-yl)cyclopropanecarboxamide] | 1 to 10 |
| Cc1nc2c(Nc3ccc(Cl)cc3N(C)S(C)(=O)=O)cc(Nc3cccc(C#N)n3)nc2[nH]1 [I-134, N-(5-chloro-2-((5-((6-cyanopyridin-2-yl)amino)-2-methyl-3H-imidazo[4,5-b]pyridin-7-yl)amino)phenyl)-N-methylmethanesulfonamide] | 0.1 to 0.5 |
| COc1ccccc1Nc1cc(Nc2ccc(N3CCC4(CCOCC4)CC3)cn2)nc2[nH]c(C(F)F)nc12 [I-136, N5-(5-(3-oxa-9-azaspiro[5.5]undecan-9-yl)pyridin-2-yl)-2-(difluoromethyl)-N7-(2-methoxyphenyl)-3H-imidazo[4,5-b]pyridine-5,7-diamine] | > 10 |
| COc1c(Nc2cc(Nc3cnc(C(C)(C)OC)c(C)n3)nc3[nH]c(C)nc23)cccc1-c1nnn(C)n1 [I-138, N7-(2-methoxy-3-(2-methyl-2H-tetrazol-5-yl)phenyl)-N5-(5-(2-methoxypropan-2-yl)-6-methylpyrazin-2-yl)-2-methyl-3H-imidazo[4,5-b]pyridine-5,7-diamines] | 1 to 10 |
| COc1c(Nc2cc(NC(=O)C3CC3)nc3[nH]c(C(F)F)nc23)cccc1C(=O)O [I-140, 3-((5-(cyclopropanecarboxamido)-2-(difluoromethyl)-3H-imidazo[4,5-b]pyridin-7-yl)amino)-2-methoxybenzoic acid] | 1 to 10 |
| COc1c(Nc2cc(NC(=O)C3CC3)nc3[nH]c(C)nc23)cccc1C(=O)O [I-141, 3-((5-(cyclopropanecarboxamido)-2-methyl-3H-imidazo[4,5-b]pyridin-7-yl)amino)-2-methoxybenzoic acid] | > 10 |
| COc1c(Nc2cc(NC(=O)C3CC3)nc3[nH]c(C(F)F)nc23)cccc1-c1c(C)nnn1C [I-146, N-(2-(difluoromethyl)-7-((3-(1,4-dimethyl-1H-1,2,3-triazol-5-yl)-2-methoxyphenyl)amino)-3H-imidazo[4,5-b]pyridin-5-yl)cyclopropanecarboxamide] | 1 to 10 |
| CN(c1cc(-c2cncn2C)ccc1Nc1cc(NC(=O)C2CC2)nc2[nH]c(C(F)F)nc12)S(C)(=O)=O [I-147, N-(2-(difluoromethyl)-7-((4-(1-methyl-1H-imidazol-5-yl)-2-(N-methylmethylsulfonamido)phenyl)amino)-3H-imidazo[4,5-b]pyridin-5-yl)cyclopropanecarboxamide] | < 0.1 |
| Cn1ccc(-c2ccc(Nc3cc(NC(=O)C4CC4)nc4[nH]c(C(F)F)nc34)c(S(C)(=O)=O)c2)n1 [I-148, N-(2-(difluoromethyl)-7-((4-(1-methyl-1H-pyrazol-3-yl)-2-(methylsulfonyl)phenyl)amino)-3H-imidazo[4,5-b]pyridin-5-yl)cyclopropanecarboxamide] | 0.1 to 0.5 |
| COc1c(Nc2cc(NC(=O)C3CC3)nc3[nH]c(C)nc23)cccc1-n1nc(C)nc1C [I-149, N-(7-((3-(3,5-dimethyl-1H-1,2,4-triazol-1-yl)-2-methoxyphenyl)amino)-2-methyl-3H-imidazo[4,5-b]pyridin-5-yl)cyclopropanecarboxamide] | > 10 |
| COCc1ccc(Nc2cc(NC(=O)C3CC3)nc3[nH]c(C)nc23)c(N(C)S(C)(=O)=O)c1 [I-150, N-(7-((4-(methoxymethyl)-2-(N-methylmethylsulfonamido)phenyl)amino)-2-methyl-3H-imidazo[4,5-b]pyridin-5-yl)cyclopropanecarboxamide] | 0.1 to 0.5 |
| Cc1nc2c(Nc3ccc(-c4cncn4C)cc3N(C)S(C)(=O)=O)cc(NC(=O)C3CC3)nc2[nH]1 [I-153, N-(2-methyl-7-((4-(1-methyl-1H-imidazol-5-yl)-2-(N-methylmethylsulfonamido)phenyl)amino)-3H-imidazo[4,5-b]pyridin-5-yl)cyclopropanecarboxamide] | 0.1 to 0.5 |
| Cc1ncc(Nc2cc(Nc3ccc(-c4cncn4C)cc3N(C)S(C)(=O)=O)c3nc(C(F)F)[nH]c3n2)nc1C [I-154, N-(2-((2-(difluoromethyl)-5-((5,6-dimethylpyrazin-2-yl)amino)-3H-imidazo[4,5-b]pyridin-7-yl)amino)-5-(1-methyl-1H-imidazol-5-yl)phenyl)-N-methylmethanesulfonamide] | 0.1 to 0.5 |

More lines, now with the values ahead:

| Kd [nM] | SMILES |
| --- | --- |
| 0.5 to 1 | Cc1nc2c(Nc3ccc(Cl)cc3N(C)S(C)(=O)=O)cc(Nc3cnc(C)c(C)n3)nc2[nH]1 [I-130, N-(5-chloro-2-((5-((5,6-dimethylpyrazin-2-yl)amino)-2-methyl-3H-imidazo[4,5-b]pyridin-7-yl)amino)phenyl)-N-methylmethanesulfonamide] |
| 0.1 to 0.5 | Cc1cnn(-c2ccc(Nc3cc(NC(=O)C4CC4)nc4[nH]c(C(F)F)nc34)c(N(C)S(C)(=O)=O)c2)c1 [I-135, N-(2-(difluoromethyl)-7-((4-(4-methyl-1H-pyrazol-1-yl)-2-(N-methylmethylsulfonamido)phenyl)amino)-3-imidazo[4,5-b]pyridin-5-yl)cyclopropanecarboxamide] |
| 0.5 to 1 | Cc1ccn(-c2ccc(Nc3cc(NC(=O)C4CC4)nc4[nH]c(C(F)F)nc34)c(N(C)S(C)(=O)=O)c2)n1 [I-139, N-(2-(difluoromethyl)-7-((4-(3-methyl-1H-pyrazol-1-yl)-2-(N-methylmethylsulfonamido)phenyl)amino)-3H-imidazo[4,5-b]pyridin-5-yl)cyclopropanecarboxamide] |
| 1 to 10 | COc1cc(-c2cncn2C)ccc1Nc1cc(NC(=O)C2CC2)nc2[nH]c(C(F)F)nc12 [I-142, N-(2-(difluoromethyl)-7-((2-methoxy-4-(1-methyl-1H-imidazol-5-yl)phenyl)amino)-3H-imidazo[4,5-b]pyridin-5-yl)cyclopropanecarboxamide] |
| 1 to 10 | COc1cc(-c2cncn2C)ccc1Nc1cc(Nc2cccc(C#N)n2)nc2[nH]c(C(F)F)nc12 [I-143, 6-((2-(difluoromethyl)-7-((2-methoxy-4-(1-methyl-1H-imidazol-5-yl)phenyl)amino)-3H-imidazo[4,5-b]pyridin-5-yl)amino)picolinonitril] |
| > 10 | COc1cc(-c2cncn2C)ccc1Nc1cc(Nc2cnc(C)c(C)n2)nc2[nH]c(C(F)F)nc12 [I-144, 2-(difluoromethyl)-N5-(5,6-dimethylpyrazin-2-yl)-N7-(2-methoxy-4-(1-methyl-1H-imidazol-5-yl)phenyl)-3H-imidazo[4,5-b]pyridine-5,7-diamine] |
| 0.5 to 1 | Cc1cnn(-c2ccc(Nc3cc(NC(=O)C4CC4)nc4[nH]c(C)nc34)c(N(C)S(C)(=O)=O)c2)c1 [I-145, N-(2-methyl-7-((4-(4-methyl-1H-pyrazol-1-yl)-2-(N-methylmethylsulfonamido)phenyl)amino)-3H-imidazo[4,5-b]pyridin-5-yl)cyclopropanecarboxamide] |
| 1 to 10 | COc1cc(-c2cncn2C)ccc1Nc1cc(NC(=O)C2CC2)nc2[nH]c(C)nc12 [I-151, N-(7-((2-methoxy-4-(1-methyl-1H-imidazol-5-yl)phenyl)amino)-2-methyl-3H-imidazo[4,5-b]pyridin-5-yl)cyclopropanecarboxamide] |
| 1 to 10 | COc1cc(-c2cncn2C)ccc1Nc1cc(Nc2cnc(C)c(C)n2)nc2[nH]c(C)nc12 [I-152, N5-(5,6-dimethylpyrazin-2-yl)-N7-(2-methoxy-4-(1-methyl-1H-imidazol-5-yl)phenyl)-2-methyl-3H-imidazo[4,5-b]pyridine-5,7-diamine] |
| 1 to 10 | COc1c(Nc2cc(NC(=O)C3CC3)nc3[nH]c(C(F)F)nc23)cccc1-c1nnn(C)c1C [I-155, N-(2-(difluoromethyl)-7-((3-(1,5-dimethyl-1H-1,2,3-triazol-4-yl)-2-methoxyphenyl)amino)-3H-imidazo[4,5-b]pyridin-5-yl)cyclopropanecarboxamide] |
| 0.1 to 0.5 | Cc1nc2c(Nc3ccc(-c4cn(C)cn4)cc3N(C)S(C)(=O)=O)cc(NC(=O)C3CC3)nc2[nH]1 [I-156, N-(2-methyl-7-((4-(1-methyl-1H-imidazol-4-yl)-2-(N-methylmethylsulfonamido)phenyl)amino)-3H-imidazo[4,5-b]pyridin-5-yl)cyclopropanecarboxamide] |
| 1 to 10 | COc1c(Nc2cc(NC(=O)C3CC3)nc3[nH]c(C)nc23)cccc1-c1c(C)nnn1C [I-157, N-(7-((3-(1,4-dimethyl-1H-1,2,3-triazol-5-yl)-2-methoxyphenyl)amino)-2-methyl-3H-imidazo[4,5-b]pyridin-5-yl)cyclopropanecarboxamide] |
| > 10 | COc1c(Nc2cc(NC(=O)C3CC3)nc3[nH]c(C)nc23)cccc1-c1nnn(C)c1C [I-158, N-(7-((3-(1,5-dimethyl-1H-1,2,3-triazol-4-yl)-2-methoxyphenyl)amino)-2-methyl-3H-imidazo[4,5-b]pyridin-5-yl)cyclopropanecarboxamide] |
| 0.1 to 0.5 | CS(=O)(=O)c1ccccc1Nc1cc(NC(=O)C2CC2)nc2[nH]c(C(F)F)nc12 [I-159] |
| 1 to 10 | COc1cc(-c2cncn2C)ccc1Nc1cc(Nc2cccc(C#N)n2)nc2[nH]c(C)nc12 [I-160, 6-((7-((2-methoxy-4-(1-methyl-1H-imidazol-5-yl)phenyl)amino)-2-methyl-3H-imidazo[4,5-b]pyridin-5-yl)amino)picolinonitrile] |
